# From publication PMC5924788 (Frontiers in Chemistry, 2018)
# Read-outs that look alike come from different tables or passages of the source. Marks after values point to notes of the source that are not given here.
# Tests used:
# HepG2 cells = experiment: Cytotoxicity in HepG2 cells (resazurin reduction); assay type: cell-based, human; settings: 48 h; for cellular metabolic activity (resazurin reduction), cytotoxicity: HepG2, 1, 10 and 50 μM
# Protocol: Human hepatocellular carcinoma cells (HepG2, ECACC, UK) were also used in this study. Cells were cultured in low-glucose medium (5 mM) composed by Dulbecco's modified Eagle's medium (DMEM, D5030) supplemented with sodium pyruvate (0.11 g/L), sodium bicarbonate (3.7 g/L), HEPES (1.19 g/L), 6 mM glutamine and 10% fetal bovine serum (FBS) and 1% of antibiotic penicillin-streptomycin 100 × solution. HepG2 (2.5 × 10^4 cells/well) cells were seeded in a 96-well plate and proliferate for 24 h before treatment.
# (§1) The cytotoxicity profile of the compounds under study was evaluated in differentiated SH-SY5Y cells (8,000 cells/well), according the differentiation protocol previously described, and in HepG2 cells (2.5 × 10^4 cells/well), seeded into 96-well plates. […]. In both assays, the reduction of MTT tetrazolium salt or resazurin to MTT formazan or resorufin, respectively, by cellular dehydrogenases present in viable cells, gives insights on cell metabolic activity.
# Regarding the resazurin reduction assay, after the incubation time, the medium was replaced by fresh medium containing resazurin (10 μg/mL) prepared in sterile PBS (1X) and left to react for 1 h. The fluorescent signal was monitored using a 540 nm excitation wavelength and 590 nm emission wavelength in a Cytation 3 reader (BioTek Instruments Inc., USA). The percentage of resazurin reduction relative to that of the control cells was used as the cytotoxicity measure [resazurin reduction (% of control)] as means ± SEM of four independent experiments.
# [1] = mean ± SD; ref Teixeira et al. ([2017a]); cited from earlier work
# BChE [2] = molecular target: T1, BChE (Homo sapiens, UniProt P06276); experiment: BChE-inhibitor kinetics (Lineweaver-Burk and Dixon plots); assay type: biochemical
# T1 construct: purchased Sigma-Aldrich Química S. A
# Protocol: (§2) To evaluate the mechanism of AChE and BChE inhibition of the most promising compounds substrate-dependent kinetic experiments were performed. […] The results are presented as double reciprocal Lineweaver-Burk plots (1/V vs. 1/[S]). The kinetic data, namely Km and Vmax, were acquired employing Michaelis-Menten equation. The Ki values were estimated using Dixon plots, by replotting the slope of each Lineweaver-Burk plot vs. the inhibitor concentration. In the Dixon plots, the Ki value was obtained from the x-axis intercept (–Ki). The enzymatic reactions and measurements were performed using the same AChE and BChE assay conditions as described above (determined in triplicate). Linear regression analysis was performed using GraphPad Prism 5.0 (GraphPad Software, Inc.).
# (§3) In order to understand the AChE and BChE inhibitory mechanism of the most promising ChE inhibitors, kinetic experiments were performed. […] Graphical analysis of the reciprocal Lineweaver–Burk plots was used to determine Michaelis-Menten reaction kinetic parameters (Km and Vmax).
# BChE [3] = molecular target: T1, BChE; experiment: biochemical
# Description: (§4) Acetylcholinesterase (AChE) from Electrophorus electricus (electric eel), butyrylcholinesterase (BChE) and acetylthiocholine iodide (ATCI), butyrylthiocholine iodide (BTCI), 5,5′-dithiobis-(2-nitrobenzoate) (DTNB), (4,5-dimethylthiazol-2-yl)-2,5-diphenyl tetrazolium (MTT) bromide and Dulbecco's modified Eagle's medium (DMEM) with 4.5 g/L glucose were obtained from Sigma-Aldrich Química S. A. Reagents used in cell culture, including nonessential amino acids (NEAA), heat inactivated fetal bovine serum (FBS), 0.05% trypsin/1 mM EDTA, antibiotic (10000 U/mL penicillin, 10,000 μg/mL streptomycin) and Hank's balanced salt solution (HBSS) were purchased from Gibco Laboratories. Dimethylsulfoxide (DMSO-d6), absolute ethanol and acetic acid were obtained from Merck. All reagents were of analytical grade or of the highest grade available.
# (§5) Briefly, 100 μL of sodium phosphate buffer, 40 μL of DTNB, 20 μL of the test compounds/standard inhibitors and 20 μL of AChE or BChE were incubated for 5 min at 30°C in a 96-well microplate (BRANDplates, pureGradeTM, BRAND GMBH, Wertheim, Germany). After that, 20 μL of ATCI or BTCI was added, respectively. […] A control using 20 μL of sodium phosphate buffer instead of compound solution was also performed. The IC50 values were determined in triplicate from the dose-response inhibition curves and are expressed as mean ± standard deviation (SD).
# (§6) ATCI and BTCI were used as substrates for AChE or BChE, respectively, generating thiocholine and acetate or butyrate.
# [4] = ref Teixeira et al. ([2017a]); cited from earlier work
# SH-SY5Y cells [5] = experiment: Neuroprotection against Aβ1–42 peptide-induced cytotoxicity (resazurin reduction); settings: for neuroprotective effect against Aβ1–42 peptide-induced cytotoxicity: 10 μM pre-treatment 24 h, then Aβ1–42 25 μM 48 h
# Protocol: The antioxidant efficiency of the new HBAc derivatives was evaluated in the presence of Aβ1–42 peptide. […] Aβ1–42 aliquots were then stored at −20°C until use (enriched oligomeric Aβ1–42 preparation).
# Undifferentiated SH-SY5Y cells were seeded onto 96-well plates (8000 cells/well) and differentiated as previously described. […] After incubation time, cellular metabolic activity was determined using the resazurin reduction assay as previously described.
# Aβ aggregation, the pathological hallmark of AD, is the most targeted biomarker in drug discovery and development for AD.
# SH-SY5Y cells [6] = experiment: Cytotoxicity in differentiated SH-SY5Y cells (MTT reduction); assay type: cell-based, human; settings: 24 h; for cellular metabolic activity (MTT reduction), cytotoxicity: differentiated SH-SY5Y, 1, 10 and 50 μM
# Protocol: SH-SY5Y (ATCC, Manassas, VA, USA), a neuroblastoma cell line, was routinely cultured in 75-cm^2 flasks (Corning Costar, Corning, NY, USA) using DMEM with 4.5 g/L glucose, supplemented with 10% heat-inactivated FBS (v/v), 1% NEAA (v/v), 100 U/mL penicillin, and 100 μg/mL streptomycin. The cells used for all the experiments were taken between the 37th and 45th passages, to avoid phenotypic changes. […] Three days after seeding, the medium of cells was changed, adding cell culture medium with 0.1% of TPA for more 3 days before treatment.
# as §1
# For the MTT assay, the cell culture medium was removed after the incubation time, followed by the addition of fresh cell culture medium containing 0.5 mg/mL MTT and incubation for 30 min. After this incubation period, the cell culture medium was removed, and the formed formazan crystals dissolved in DMSO. The absorbance was measured at 550 nm in a multi-well plate reader (BioTek Instruments, Vermont, USA). The percentage of MTT reduction relative to that of the control cells was used as the cytotoxicity measure [MTT reduction (% of control)] as means ± SEM of four independent experiments.
# AChE [7] = molecular target: T2, AChE (Electrophorus electricus, UniProt O42275); experiment: AChE inhibition, Ellman's method; assay type: biochemical, Electrophorus electricus (electric eel)
# T2 construct: purchased Sigma-Aldrich Química S. A
# Description: as §4, §5, §6
# [8] = mean ± SD; ref Teixeira et al. ([2017a]); cited from earlier work; remark: listed apart in the source
# [9] = ABTS radical cation scavenging assay; settings: mean ± SD, triplicate
# Protocol: (§7) The IC50 values were determined in triplicate from the dose-response inhibition curves and are expressed as mean ± standard deviation (SD).
# [10] = Redox properties by differential pulse and cyclic voltammetry; assay type: physicochemical; settings: physiological pH 7.4, differential pulse voltammetry, glassy carbon electrode
# Protocol: Voltammetric studies were performed using an Autolab PGSTAT12 potentiostat/galvanostat (Metrohm Autolab, Netherland) and a one-compartment glass electrochemical cell.
# [11] = DPPH radical scavenging assay; settings: mean ± SD, triplicate
# Protocol: as §7
# AChE [12] = molecular target: T2, AChE; experiment: AChE-inhibitor kinetics (Lineweaver-Burk and Dixon plots); assay type: biochemical, Electrophorus electricus (electric eel)
# Protocol: as §2, §3
# [13] = Lineweaver-Burk plots, Vmax decreased, Km unchanged
# [14] = mean ± SD, triplicate, 30°C, read-out: IC50 BChE
# T2 sequence (O42275 24-633): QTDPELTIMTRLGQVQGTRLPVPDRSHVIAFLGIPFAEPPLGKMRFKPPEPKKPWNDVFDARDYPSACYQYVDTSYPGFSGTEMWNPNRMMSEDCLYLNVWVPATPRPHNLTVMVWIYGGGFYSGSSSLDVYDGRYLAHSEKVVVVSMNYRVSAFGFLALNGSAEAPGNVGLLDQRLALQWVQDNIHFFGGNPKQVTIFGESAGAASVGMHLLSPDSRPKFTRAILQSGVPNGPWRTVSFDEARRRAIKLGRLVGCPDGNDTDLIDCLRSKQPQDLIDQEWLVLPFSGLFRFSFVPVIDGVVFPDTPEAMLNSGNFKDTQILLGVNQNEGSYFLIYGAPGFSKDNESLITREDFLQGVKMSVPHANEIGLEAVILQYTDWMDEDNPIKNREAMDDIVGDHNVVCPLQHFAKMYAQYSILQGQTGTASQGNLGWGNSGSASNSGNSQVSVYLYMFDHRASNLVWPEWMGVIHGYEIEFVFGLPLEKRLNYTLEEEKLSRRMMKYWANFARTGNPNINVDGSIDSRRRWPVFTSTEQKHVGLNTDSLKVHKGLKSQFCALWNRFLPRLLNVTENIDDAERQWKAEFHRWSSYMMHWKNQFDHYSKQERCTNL
# T1 sequence (P06276 29-602, species assumed): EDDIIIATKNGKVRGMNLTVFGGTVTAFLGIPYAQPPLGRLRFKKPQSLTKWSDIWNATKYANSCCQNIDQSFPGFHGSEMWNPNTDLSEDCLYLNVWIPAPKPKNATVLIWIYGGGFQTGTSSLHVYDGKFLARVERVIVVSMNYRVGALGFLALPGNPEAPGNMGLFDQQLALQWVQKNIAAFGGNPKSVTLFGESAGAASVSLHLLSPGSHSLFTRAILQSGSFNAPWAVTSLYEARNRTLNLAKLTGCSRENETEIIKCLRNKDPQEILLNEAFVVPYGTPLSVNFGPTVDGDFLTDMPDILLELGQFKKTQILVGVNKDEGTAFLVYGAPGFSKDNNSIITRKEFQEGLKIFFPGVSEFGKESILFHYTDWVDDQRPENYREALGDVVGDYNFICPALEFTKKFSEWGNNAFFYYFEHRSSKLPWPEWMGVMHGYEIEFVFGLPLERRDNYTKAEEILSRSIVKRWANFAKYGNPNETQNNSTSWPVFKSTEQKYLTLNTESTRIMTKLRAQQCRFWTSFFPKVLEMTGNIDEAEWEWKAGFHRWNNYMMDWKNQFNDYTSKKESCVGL
Molecule,"cellular metabolic activity (resazurin reduction), cytotoxicity (HepG2 cells)",SI: BChE selectivity index = IC50(AChE)/IC50(BChE) (BChE [3]),neuroprotective effect against Aβ1–42 peptide-induced cytotoxicity (SH-SY5Y cells [5]),"cellular metabolic activity (MTT reduction), cytotoxicity (SH-SY5Y cells [6])",IC50 (AChE [7]),IC50 [9],IC50 (BChE [3]),Ep (oxidation potential) [10],IC50 [11],also measured
O=C(NCCCCCC[P+](c1ccccc1)(c1ccccc1)c1ccccc1)c1ccc(O)c(O)c1 [AntiOxBEN1],dose-dependent toxicity,> 588,significantly prevented Aβ1–42 peptide-induced dysfunction/cell death,dose-dependent toxicity,> 50 µM,,,,,IC50 [1]: 20.7 ± 0.8 µM; Ki (BChE [2]): 29.5 nM; BChE inhibition mechanism (BChE [2]; [13]): non-competitive; IC50 (BChE [3]; [14]): 85 ± 5 nM; Ep (oxidation potential) [4]: 219^* mV; effect on AChE (AChE [7]; at 50 μM): did not have any effect; IC50 [8]: 31 ± 0.8 µM
O=C(NCCCCCC[P+](c1ccccc1)(c1ccccc1)c1ccccc1)c1cc(O)c(O)c(O)c1 [AntiOxBEN2],did not alter cellular metabolic activity,86,more evident,did not alter cellular metabolic activity,40.5 ± 7 µM,,,,,IC50 [1]: 6.5 ± 0.5 µM; IC50 (BChE [3]; [14]): 474 ± 17 nM; Ep (oxidation potential) [4]: 115^* mV; IC50 [8]: 14 ± 0.3 µM
"O=C(NCCCCCCCC[P+](c1ccccc1)(c1ccccc1)c1ccccc1)c1ccc(O)c(O)c1.[Br-] [Compound 15, (8-(3,4-Dihydroxybenzamido)octyl)triphenylphosphonium bromide]",dose-dependent toxicity,106,,dose-dependent toxicity,11.2 ± 0.8 µM,23.5 ± 1.3 µM,106 ± 5 nM,216 mV,31.2 ± 0.9 µM,
"O=C(NCCCCCCCC[P+](c1ccccc1)(c1ccccc1)c1ccccc1)c1cc(O)c(O)c(O)c1.[Br-] [Compound 16, (8-(3,4,5-Trihydroxybenzamido)octyl)triphenylphosphonium bromide]",did not alter cellular metabolic activity,62,more evident,did not alter cellular metabolic activity,15.7 ± 0.9 µM,6.8 ± 0.6 µM,255 ± 9 nM,121 mV,16.8 ± 1.6 µM,
"O=C(NCCCCCCCCCC[P+](c1ccccc1)(c1ccccc1)c1ccccc1)c1ccc(O)c(O)c1.[Br-] [Compound 17, (10-(3,4-Dihydroxybenzamido)decyl)triphenylphosphonium bromide]",dose-dependent toxicity,,more evident,dose-dependent toxicity,7.7 ± 0.4 µM,19.4 ± 1 µM,195 ± 20 nM,210 mV,31 ± 0.6 µM,
"O=C(NCCCCCCCCCC[P+](c1ccccc1)(c1ccccc1)c1ccccc1)c1cc(O)c(O)c(O)c1.[Br-] [Compound 18, (10-(3,4,5-Trihydroxybenzamido)decyl)triphenylphosphonium bromide]",did not alter cellular metabolic activity,13,significantly prevented Aβ1–42 peptide-induced dysfunction/cell death,did not alter cellular metabolic activity,7.2 ± 0.5 µM,7.4 ± 0.5 µM,553 ± 22 nM,114 mV,10.2 ± 1.1 µM,"cellular metabolic activity (resazurin reduction) (HepG2 cells; HepG2, 10 and 50 μM): slightly increased; Ki (AChE [12]): 6.6 µM; AChE inhibition mechanism (AChE [12]; [13]): non-competitive; cellular metabolic activity (MTT reduction) (SH-SY5Y cells [6]; SH-SY5Y, 1 and 10 μM): slightly increased"
Aβ1–42 [reference compound],,,,,,,,,,"decrease of cell viability compared to control (SH-SY5Y cells [5]; Aβ1–42 peptide 25 μM, 48 h, resazurin): about 28%"
